Source: patent publication EP0252380B1, “Antibiotic LL-E19020 alpha and beta” (AMERICAN CYANAMID COMPANY, priority 1986, dated 1988)
Values after ≈ are worked out from the molar mass of the structure shown. Where two headings read alike, the source gives them in different places. Marks after values point to notes of the source that are not given here.

How the values were obtained:
[1] = Weight gain and feed efficiency of broiler chicks (Example 6, Table IX); assay type: in vivo, Peterson X Arbor Acres chicks; conditions: 200 PPM in diet
[2] = Weight gains and feed efficiency in broiler chicks treated with E19020 alpha (Table IX A); assay type: in vivo; conditions: 200 PPM
Procedure: Five male and five female one day old Peterson X Arbor Acres chicks are allotted to starter battery cages by weight. Cages are randomized to treatment groups with seven replicates per treatment. […] The positive standard is penicillin at 200 ppm. Diets are prepared weekly.

Treponema hyodysenteriae [3] = test: T. hyodysenteriae disk test (primary in vitro disk diffusion test); conditions: Brachyspira hyodysenteriae
[4] = test system: Pasteurella haemolytica 30660; test: Pasteurella disk test (primary in vitro disk diffusion test); assay type: cell-based; conditions: Mannheimia haemolytica; disks soaked in 2.5 mg/ml solution; strain 30660
[5] = test system: Mycoplasma gallisepticum "R"; test: Minimum inhibitory concentration assay for Mycoplasma gallisepticum (microdilution, Table VII); conditions: Mycoplasmoides gallisepticum
[6] = test system: Pasteurella multocida 31081B; test: Pasteurella disk test (primary in vitro disk diffusion test); conditions: Pasteurella multocida, 31081B, read-out: ZONE SIZE
Treponema hyodysenteriae [7] = test: Minimum inhibitory concentration by microdilution (Table VII); assay type: cell-based; conditions: Brachyspira hyodysenteriae, read-out: MIC
[8] = test system: In Vitro Rumen Fermentation; test: Propionate enhancement activity during in vitro rumen fermentation; assay type: cell-based, steer; conditions: for A:P: acetate/propionate ratio
Procedure: The drugs are dissolved or suspended (sonified if necessary) in a 0.1% Tween 20-ethanol-water vehicle and 25-50 ul is added to the incubation. The reaction is terminated with 6N HCl and centrifuged at 20,000 x g. Alliquots of the superinatant are analyzed for volatile fatty acid (VFA) content by gas-liquid chromatography.

[9] = ATCC27164, strain B78 (ATCC 27164)
[10] = ATCC31212, strain B204 (ATCC 31212)

For Penicillin [reference compound], the “Wg Gains And Feed Efficiency % Improvement Over Controls COMBINED” value [1] was 3.5%, the “Wg Gains And Feed Efficiency % Improvement Over Controls FEMALES” value [1] was 4.2% and the “Wg Gains And Feed Efficiency % Improvement Over Controls MALES” value [1] was 2.4%. The “Wg Gains And Feed Efficiency % Improvement Over Controls FEED/GAIN” value ([1]; control 1.41) was 1.35**, the “FEED/GAIN % I[…] CONTROLS 0-3 WEEKS” value [2] was 3.5% and the “FEED/GAIN % I[…] CONTROLS 0-7 WEEKS” value [2] was 6.0%. For the same molecule, the “WEIGHT GAIN % I[…] CONTROLS 0-3 WEEKS” value [2] was 4.9%, the “WEIGHT GAIN % I[…] CONTROLS 0-7 WEEKS” value [2] was 3.4% and the “FEED/GAIN 0-3 WEEKS” value ([2]; control 1.43) was 1.38**. For the same molecule, the “FEED/GAIN 0-7 WEEKS” value ([2]; control 1.99) was 1.87**, the “WEIGHT GAIN IN GRAMS 0-3 WEEKS” value ([2]; control 608) was 638* GRAMS and the “WEIGHT GAIN IN GRAMS 0-7 WEEKS” value ([2]; control 2145) was 2217 GRAMS.

Work on `CN(C)C1C(=O)C(C(N)=O)=C(O)C2(O)C(=O)C3=C(O)c4c(O)ccc(Cl)c4C(C)(O)C3CC12` (stereo not shown) [CTC, reference compound] yielded a zone of inhibition at 2500 µg/mL (Treponema hyodysenteriae [3]; ATCC27164, read-out: ZONE SIZE) of 45 mm, a zone of inhibition at 2500 µg/mL (Treponema hyodysenteriae [3]; ATCC31212, read-out: ZONE SIZE) of 37 mm and a zone of inhibition at 2500 µg/mL [4] of 11 mm. For the same molecule, the MIC [5] was 0.5 µg/mL (≈ 1.04 µM) and the zone of inhibition at 2500 µg/mL [6] was 25 mm.

`C=C[C@]1(C)C[C@@H](OC(=O)CSCCN(CC)CC)[C@]2(C)[C@H](C)CC[C@]3(CCC(=O)[C@H]32)[C@@H](C)[C@@H]1O` [TIAMULIN, reference compound] showed a zone of inhibition at 2500 µg/mL (Treponema hyodysenteriae [3]; ATCC27164, read-out: ZONE SIZE) of 67 mm, a zone of inhibition at 2500 µg/mL (Treponema hyodysenteriae [3]; ATCC31212, read-out: ZONE SIZE) of 70 mm and an MIC (Treponema hyodysenteriae [7]; [9]) of 0.015 µg/mL (≈ 0.0304 µM). For the same molecule, the MIC (Treponema hyodysenteriae [7]; [10]) was 0.015 µg/mL (≈ 0.0304 µM).

`CC[C@H]1OC(=O)C[C@@H](O)[C@H](C)[C@@H](O[C@@H]2O[C@H](C)[C@@H](O[C@H]3C[C@@](C)(O)[C@@H](O)[C@H](C)O3)[C@H](N(C)C)[C@H]2O)[C@@H](CC=O)C[C@@H](C)C(=O)/C=C/C(C)=C/[C@@H]1CO[C@@H]1O[C@H](C)[C@@H](O)[C@@H](OC)[C@H]1OC` [TYLOSIN, reference compound] showed an MIC [5] of 0.03 µg/mL (≈ 0.0327 µM).

In the case of AVOPARCIN [reference compound], the “A:P” value ([8]; Table X, 1.0 PPM, control 2.65) is reported as 2.38, the “TOTAL VFA” value ([8]; Table X, 1.0 PPM, control 159.4) is reported as 159.4 mM and the “A:P” value ([8]; Table X, 2.000 PPM, control 2.65) is reported as 2.23. For the same molecule, the “TOTAL VFA” value ([8]; Table X, 2.000 PPM, control 159.4) was 160.2 mM, the “A:P” value ([8]; Table X, 4.0 PPM, control 2.65) was 2.12 and the “TOTAL VFA” value ([8]; Table X, 4.0 PPM, control 159.4) was 158.9 mM. The “A:P” value ([8]; Table X, 8.0 PPM, control 2.65) was 2.08, the “TOTAL VFA” value ([8]; Table X, 8.0 PPM, control 159.4) was 158.3 mM and the “A:P” value ([8]; Table XI, 1.0 PPM, control 2.19) was 2.02. The “TOTAL VFA” value ([8]; Table XI, 1.0 PPM, control 125.3) was 126.9 mM, the “A:P” value ([8]; Table XI, 2.0 PPM, control 2.19) was 1.98 and the “TOTAL VFA” value ([8]; Table XI, 2.0 PPM, control 125.3) was 125.3 mM. For the same molecule, the “A:P” value ([8]; Table XI, 4.0 PPM, control 2.19) was 1.90, the “TOTAL VFA” value ([8]; Table XI, 4.0 PPM, control 125.3) was 121.3 mM and the “A:P” value ([8]; Table XI, 8.0 PPM, control 2.19) was 1.88. The “TOTAL VFA” value ([8]; Table XI, 8.0 PPM, control 125.3) was 119.4 mM.

`COC(=O)N/N=C/c1c[n+]([O-])c2ccccc2[n+]1[O-]` [CARBADOX, reference compound] showed an MIC (Treponema hyodysenteriae [7]; [9]) of 0.5 µg/mL (≈ 1.91 µM) and an MIC (Treponema hyodysenteriae [7]; [10]) of 0.25 µg/mL (≈ 0.953 µM).
